In publication PMC9017425, “Integrative Analysis of Pharmacokinetic and Metabolomic Profiles for Predicting Metabolic Phenotype and Drug Exposure Caused by Sotorasib in Rats” (Frontiers in Oncology, 2022):
Where two headings read alike, the source gives them in different places.

Key:
[1] = Working solution stability of sotorasib; assay type: physicochemical; conditions: −80°C for 10 days, n = 6
Procedure: Stock solutions of sotorasib and IS were equipped using ACN at a concentration of 1.0 mg/ml and further diluted for the calibration standards and quality control (QC) samples at a final concentration of 500 µg/ml separately. The working IS solution was prepared in MeOH at a concentration of 10 ng/ml. The working calibration solutions of sotorasib were completed in dilution (MeOH/water = 1:1, v/v) to obtain concentrations of 5, 10, 20, 50, 100, 100, 200, 500, 1,000, 2,000, and 5,000 ng/ml. Similarly, the QC working solutions of analytes were prepared to obtain final concentrations of 10, 200, and 4,000 ng/ml. All solutions were stored in a −80°C freezer pending analysis. For the PK study, calibrations were made in blank rat plasma to achieve a nominal concentration range of 0.5–500 ng/ml. QC plasma samples were prepared in blank rat plasma at nominal concentrations of 1, 20, and 400 ng/ml. Stability was investigated at LQC and HQC concentrations in six replicates. The stability conditions incorporated the short-term (at ambient temperature for 24 h), freeze–thaw (−80°C to ambient temperature, three sequential cycles), post-preparation (autosampler, 24 h), and long-term (−80°C for 3 months) status. If the %Bias is within ±15%, the stability is considered acceptable.

[2] = parameters: method as in PMID 33957355; conditions: mice, single oral 20 mg/kg; cited from earlier work
[3] = Pharmacokinetic study of sotorasib in rats after oral administration (HPLC-MS/MS of plasma); assay type: in vivo; conditions: male, Sprague-Dawley, rat
Procedure: For the PK study, a chromatographic system of Shimadzu LC-20ADXR (Kyoto, Japan) coupled with a mass spectrometer (QTRAP 5500; SCIEX, Concord, Canada) was utilized for chromatographic separation and mass quantitation ([19]). The column temperature was set to 40°C on a reversed-phase C18 column (50 mm × 2.1 mm i.d., 3.5 μm) (XBrige; Waters, Milford, MA, USA), and the total run time was 3.0 min. Both mobile phases contained 0.1% formic acid. Gradient elution was adopted to comply with the compounds’ baseline separation (0–0.1 min, 90% water phase; 0.1–1.2 min, 10% water phase; 1.2–2.2 min, 0% water phase; and 2.2–3.0 min, 90% water phase). The flow rate was fixed at 0.4 ml/min with an injection volume of 2 μl. A time-efficient washing procedure composed of MeOH/water/ACN/IPA (1:1:1:1, v/v/v/v) was applied during the entire analyses. Multiple reaction monitoring (MRM) was utilized with the following parameters: ion spray voltage, 5,500 V; temperature, 550°C; curtain gas, 20.0 psi; ion source, gas 1 at 55.0 psi; and turbo ion source, gas 2 at 55.0 psi. A proton adduct [M+H]^+ ion and double MRM transitions were used, which were set at m/z 561.4→317.1 (qualifier) and m/z 561.4→134.1 (quantifier) for sotorasib and at 237.0→194.1 for the IS.
During the PK study, all unknown plasma samples were mixed for 1 min and 20 μl aliquot of plasma was pipetted into an Eppendorf centrifuge tube. Protein precipitation was adopted for the preparation of the sample. After the addition of 10 μl IS working solution (10 ng/ml) and 80 μl MeOH, proteins were extracted by vortex mixing for approximately 30 s. The supernatant was centrifuged at 13,500 rpm for 10 min at 4°C. The extraction solutions were then pipetted into autosampler vials.
Six Sprague–Dawley rats (180–220 g, 8-week-old males; animal license: SCXK-2019-0008) were purchased from Beijing Vital River Laboratory Animal Technologies Co., Ltd. (Beijing, China). All rats were fed in a specific pathogen-free (SPF) conditioned room to allow acclimatization for 1 week. Animal experiments were implemented in line with the Guidelines for the Care and Use of Laboratory Animals, and animal ethics was approved by Beijing Chao-Yang Hospital, Capital Medical University. Rats were orally administered sotorasib dissolved with 1% Tween-80 and 2% hydroxypropyl methylcellulose (HPMC) in water at a dose of 10 mg/kg. Biological samples (approximately 500 μl) were collected from ophthalmic veins into heparin-anticoagulated collection tubes before administration and at 15 min, 30 min, and 1, 1.5, 2, 2.5, 3, 4, and 8 h after administration. Plasma samples were acquired by direct centrifugation at 3,500 rpm for 10 min at 4°C.
Raw data files were processed and checked using Analyst 1.6.3 and MultiQuant 3.0.1 (SCIEX, Concord, Canada). The concentrations of the analytes were calculated according to the calibration curve. Pharmacokinetic parameters, such as C max and the area under the curve (AUC), were calculated using Phoenix WinNonLin software (Pharsight 8.3, Mountain View, CA, USA). Pearson’s correlation was employed to investigate the correlation between the metabolomic data and PK parameters using IBM SPSS 26.0 (Armonk, NY, USA). SIMCA-P software (v14.1; Umetric, Umeå, Sweden) was employed to build mathematical models, including unsupervised principal component analysis (PCA), supervised orthogonal projection to latent structures discriminant analysis (OPLS-DA), and partial least squares (PLS). Compounds with values of variable importance in the projections (VIP) >1 and statistical significance of p < 0.05 were selected for further identification and metabolic pathway analysis. One hundred or 200 random permutation tests were employed to examine overfitting and random effects, which can assess the predictive ability of the model. Meanwhile, significant variables with p < 0.05 and fold change (FC) >2 or <0.5 were considered potential biomarkers. […]

[4] = parameters: method as in PMID 33283304; conditions: oral administration, 50 mg/kg; cited from earlier work
[5] = Stability of sotorasib in rat plasma QC samples under different storage conditions; assay type: in vitro ADME; conditions: for Post-preparation stability, measured concentration Mean ± SD / Room temperature stability, measured concentration Mean ± SD / Freeze–thaw stability, measured concentration Mean ± SD / Long-term stability, measured concentration Mean ± SD: n = 6; for Room temperature stability, measured concentration Mean ± SD: rat plasma, ambient temperature; for Freeze–thaw stability, measured concentration Mean ± SD: three cycles −80°C to ambient temperature; for Long-term stability, measured concentration Mean ± SD: −80°C for 3 months
Description: Stability was investigated at LQC and HQC concentrations in six replicates. […] If the %Bias is within ±15%, the stability is considered acceptable.

[6] = rats, 10 mg/kg, n = 6, mean ± SD

Working solution stability, measured concentration Mean ± SD ([1]; nominal 1 ng/ml): 1.034 ± 0.08 ng/mL
Working solution stability, measured concentration Mean ± SD ([1]; nominal 400 ng/ml): 409.37 ± 37.98 ng/mL
concentration at 15 min ([3]; 10-mg/kg dose, 15 min after administration, single sample, read-out: plasma concentration of an unknown sample): 298 ng/mL
AUC(0-inf) [3, 6]: 463 ± 167 ng·h/mL
AUC(0-t) [3, 6]: 457 ± 165 ng·h/mL
Cmax [3, 6]: 227 ± 98.8 ng/mL
half-life [3, 6]: 74.4 ± 13.2 min
CL/F ([3]; rats, 10 mg/kg, n = 6, mean ± SD, read-out: CL_F (apparent clearance) (converted)): 400 mL/min/kg
MRT ([3]; rats, 10 mg/kg, n = 6, mean ± SD, read-out: MRT (mean residence time)): 113 ± 10.8 min
Vd/F ([3]; rats, 10 mg/kg, n = 6, mean ± SD, read-out: Vz_F (apparent volume of distribution)): 43.3 ± 17.9 L/kg
Tmax ([3]; rats, 10 mg/kg, n = 6, median (range)): 30 min
stability under several storage conditions in plasma or in solution ([5]; ambient temperature 6 h, three freeze–thaw cycles, autosampler 24 h, working solution −80°C 10 days, −80°C 3 months): stable
Post-preparation stability, measured concentration Mean ± SD ([5]; nominal 1 ng/ml, autosampler 24 h): 1.07 ± 0.06 ng/mL
Room temperature stability, measured concentration Mean ± SD ([5]; nominal 1 ng/ml): 1.03 ± 0.10 ng/mL
Freeze–thaw stability, measured concentration Mean ± SD ([5]; nominal 1 ng/ml): 1.06 ± 0.07 ng/mL
Long-term stability, measured concentration Mean ± SD ([5]; nominal 1 ng/ml): 1.01 ± 0.07 ng/mL
Post-preparation stability, measured concentration Mean ± SD ([5]; nominal 400 ng/ml, autosampler 24 h): 441.20 ± 10.76 ng/mL
Room temperature stability, measured concentration Mean ± SD ([5]; nominal 400 ng/ml): 434.00 ± 8.07 ng/mL
Freeze–thaw stability, measured concentration Mean ± SD ([5]; nominal 400 ng/ml): 448.60 ± 6.19 ng/mL
Long-term stability, measured concentration Mean ± SD ([5]; nominal 400 ng/ml): 399.67 ± 20.10 ng/mL
Structure (SMILES): C=CC(=O)N1CCN(c2nc(=O)n(-c3c(C)ccnc3C(C)C)c3nc(-c4c(O)cccc4F)c(F)cc23)[C@@H](C)C1 [Sotorasib]
AUC0–4 [2]: 3,766 ± 896 ng·h/ml
C max [2]: 4,231 ± 1,208 ng/ml
T max [2]: 12.6 ± 3.6 min
t 1/2 [2]: 36 ± 3.6 min
time in which C max was achieved [2]: < 15 min
AUC0–∞ [4]: 170 ng·h/mL
C max [4]: 123 ng/mL
T max [4]: 15 min
t 1/2 [4]: 114 min
